Assay results published in patent publication US20110117120A1, “Plasmodium falciparum HLA class I restricted T-cell epitopes” (priority 2009, published 2011).
“Also recorded” adds a separate entry of the source.

Legend:
Assay type in all cases: cell-based, human
PBMC [1] = assay: ELISpot IFN-γ assay with PBMC of AdPfCA / DNA-primed volunteers (Example 2); settings: 12 wk post challenge
From the text: To more clearly define immunological active regions of AMA1, PBMCs were isolated from AMA1 immunized volunteers. Two groups of volunteers, i.e., Gp 1 (from example 1, above) and Gp2, received 2×10^10 particle units of AdPfCA (NMRC-M3V-Ad-PfCA, NMRC+Multi-antigen Multi-stage, Malaria Vaccine+Adenovector+P. falciparum CSP & AMA1 antigens). The vaccine is a combination of two separate recombinant Ad5 constructs, one expressing full length CSP and the other expressing full length apical membrane antigen 1 (AMA1). AdPfCA expressed the AMA1 regions A1 through A12. Twenty-eight (28) days later, PBMC's were collected.
In a third group (termed preCh in FIG. 7 and FIG. 8), fifteen volunteers were primed with three doses (2 mg/dose) with one month between doses. Sixteen weeks after the final DNA priming dose, each volunteer received 2×10^10 particle units of AdPfCA. PBMC's were collected on day 22-23 after receiving AdPfCA. The region of the AMA gene expressed by the DNA expression plasmid is also illustrated in FIG. 6. The DNA vaccine expressed approximately half of the A1 region of AMA1, the entire regions of A2 through A10 and a portion of A11. As in Gp 1 and Gp 2, AdPfCA expressed the AMA1 regions A1 through A12.
(§1) The stimulation of circulating antigen-specific T cell lymphocytes was evaluated by measurement of γ-IFN induction by ELISPOT. The ELISpot assay was conducted using thawed cryopreserved PBMC at 200 K cells per well. Pre-challenge cells were taken at day 21 and day 22 post AdPfCA vaccination. Cells were suspended in […] complete medium and were stimulated with AMA1 peptides suspended in […] of complete medium. Peptide concentrations used in assays was 10 μg/ml of each peptide tested. Cultures were incubated for 36 h at 37° C., 5% CO2. Depending on availability of cells, each PBMC sample was assayed in duplicate, triplicate, or quadruplicate and the number of IFN-γ-secreting cells recognized as spot-forming cells (SFC) was enumerated using an automated ELISpot reader. In duplicate assays, all values were used in analysis. For triplicate or quadruplicate assays, outliers were rejected if any single value contributed more than 50% of the standard deviation of the triplicate (or quadruplicate) and if its value was three-fold greater or less than the average of the remaining two (or three) values. The mean spot forming cells (SFCs) obtained in negative control wells were subtracted from the value of each test well from the same sample. Negative counts generated by this background subtraction were converted to zero. The mean spot number of the test sample was then calculated and expressed as SFC/million PBMCs. Values obtained with pre-vaccinated samples were subtracted from the post-vaccination values.
In a further study, volunteers were immunized with AdCA. […]

[2] = system: CD4+ and CD8+ T cells of PBMC; assay: Intracellular cytokine staining (ICS) of CD4+ and CD8+ T cells; settings: v001 and v005; FIG. 3
Experimental: ICS was performed on PBMCs with costimulatory antibodies anti-CD28 and […] (obtained from BD Bioscience™, San Jose, Calif.). The peptides were used at the same concentrations as in ELISpot assays. Stimulants were added t cells and incubated at 37° C. with 5% CO2 for 2 hr. Golgi Plug™ (Brefeldin A) (BD Bioscience™, San Jose, Calif.) was added at a final concentration of 0.6 μL/mL and incubated at 37° C. with 5% CO2 overnight. Cells were stained with anti-CD3 (Alexa Fluor 700™), anti-CD4 (PerCP™), and anti-CD8 Pacific Blue™ (obtained from BD Bioscience™, San Jose, Calif.). and 1 μg/mL of live/dead fixable blue dye, incubated and washed. Cells were permeabilized with Cytofix/Cytoperm™ solution (obtained from BD Bioscience™, San Jose, Calif.), incubated and washed. Cells were stained intracellularly with anti-CD3 ([…]), anti-CD4 (PerCP™), and anti-CD8 Pacific Blue™, anti-IFN-γ FITC, anti-TNF PE, and anti-IL2 APC, incubated and washed. Cells were resuspended and the entire available sample was acquired by flowcytometry. The gating strategy included progressively measuring total cells; viable cells only; lymphocytes; T cells; CD4^+ CD8^+ populations; and a specific cell type expressing a specific cytokine. Histograms were used to determine the total production of IFN-γ, IL2, and TNF for the CD4^+ and CD8^+ populations. Boolean gates were used to determine cells producing combinations of cytokines.
In these studies, T cells containing IFN-γ, IL2, or TNFα, were gated into different subsets: IFN-γ+, IL2+, TNFα−; IFN-γ+, IL2-, TNFα+; IFN-γ+, IL2+, TNFα+; or IFN-γ+, IL2−, TNFα− T cells, and stimulated with the predicted epitopes and their parent peptide pool. The frequency of CD8^+ T cells producing total IFN-γ was far greater than CD4^+ T cell responses (FIG. 1, upper panel), which were extremely low.

[3] = system: CD8+ or CD4+ T-cell depleted PBMC; assay: ELISpot IFN-γ assay after CD8+ or CD4+ T-cell depletion (Example 2, Table 6); settings: for CD4^+ depletion % change / CD8^+ Depletion % change / CD4^+ depletion, test / CD8^+ Depletion, test / CD4^+ depletion, control / CD8^+ Depletion, control: Vol. 1550-11; for CD4^+ depletion, test: CD4+ depleted; for CD8^+ Depletion, test: CD8+ depleted
Experimental: PBMC population depletion was conducted using anti-human CD4+ and anti-CD8^+ coated Dynabeads™ M-450 (Dynal, Great Neck, N.Y.) following the manufacturer's instructions. Mock depletion was done with Dynabeads coated with Sheep anti-mouse IgG. Flow cytometry confirmed that T-cell subset depletions were >99% in all experiments. The data is presented as the % effect (decrease) in activity after T cell subset depletion. […]
The results of this study, summarized in Table 6, identified other CD8^+ epitopes, associated specific HLA class I genes.

PBMC [4] = assay: ELISpot IFN-γ assay with PBMC of Ad5-PfCA immunized volunteers (Example 1); settings: threshold 40 SFC/million
Experimental: In order to assess the pools for their ability to induce T-cell responses, specifically CD 8^+ responses, PBMC, 1 month post immunization were used, from the five volunteers in Table 1, in ELISpot assays. In these studies, IFN-γ activity was measured in response to exposure to the peptide pools. The assays were conducted essentially as described by Wang, et al., Proc. Natl. Acad. Sci. (U.S.A.), 98: 10817-22.
as §1

| Sequence | Unfract. PBMC (PBMC [1]; Vol. 1550-10) [SFC/10^6] | Unfract. PBMC (PBMC [1]; Vol. 1550-18) [SFC/10^6] | CD4^+ versus CD8^+ T cell IFN-γ response (ICS and ELISpot depletion, words) [2] | CD4^+ depletion % change ([3]; 4 wk post challenge) [%] | CD8^+ Depletion % change ([3]; 4 wk post challenge) [%] | CD4^+ depletion, test ([3]; 4 wk post challenge) [SFC/10^6] | CD8^+ Depletion, test ([3]; 4 wk post challenge) [SFC/10^6] | CD4^+ depletion, control ([3]; 4 wk post challenge) [SFC/10^6] | CD8^+ Depletion, control ([3]; 4 wk post challenge) [SFC/10^6] | CD4^+ depletion % change ([3]; Pre-challenge) [%] | CD8^+ Depletion % change ([3]; Pre-challenge) [%] | CD4^+ depletion, test ([3]; Pre-challenge) [SFC/10^6] | CD8^+ Depletion, test ([3]; Pre-challenge) [SFC/10^6] | CD4^+ depletion, control ([3]; Pre-challenge) [SFC/10^6] | CD8^+ Depletion, control ([3]; Pre-challenge) [SFC/10^6] | reduction in ELISpot response after depletion of CD8^+ T-cells ([3]; summary of Table 6) | IFN-γ ELISpot activity of individual 15-mer peptide (PBMC [4]; Volunteer 002) [SFC/10^6] | IFN-γ ELISpot activity of individual 15-mer peptide (PBMC [4]; Volunteer 005) [SFC/10^6] |
| --- | --- | --- | --- | --- | --- | --- | --- | --- | --- | --- | --- | --- | --- | --- | --- | --- | --- | --- |
| KSHGKGYNW (listed as Plasmodium falciparum) | 159 | 181 | – | – | – | – | – | – | – | – | – | – | – | – | – | – | – | – |
| YKSHGKGYNW (listed as Plasmodium falciparum) | 144 | 271 | – | – | – | – | – | – | – | – | – | – | – | – | – | – | – | – |
| REHPKEYEYPLHQEH [Ap1-12] | – | – | strongly recognized by CD8^+ T cells; also recorded: induced both CD4^+ and CD8^+ T cell responses | 78 | 70 | 28 | 37 | 126 | 126 | 59 | 49 | 67 | 83 | 161 | 161 | 49-66% | 66 | 118 |
